Results published in patent US4963553A, “4-[(substituted) alkylcarbonyl]-4,5-dihydro- and -4,5,6,7-tetrahydro-7-[(substituted)phenyl]pyrazolo[1,5-a]pyrimidines” (American Cyanamid Co., priority 1988, dated 1990).
Where a name gives a salt, the structure may show the parent alone.

Columns and labels:
[1] = test system: mice (tetrabenazine-induced depression); test: Tetrabenazine-induced depression (antidepressant); assay type: in vivo, mouse; parameters: key: Active: A compound is considered active if 3 or more of 10 mice are protected against the tetrabenazine-induced effects; settings: 25 mg/kg, oral, 10 mice
Procedure: The compounds of the invention are useful as antidepressant agents in warm-blooded animals as verified in the following tests. First, the antidepressant properties of these compounds were tested by measuring their ability to counteract depression induced in animals by the administration of tetrabenazine methanesulfonate. Each test compound was administered orally to 10 mice at a dose of 25 mg/kg of body weight. Thirty minutes later, tetrabenazine methane sulfonate was administered intraperitoneally to each mouse at a dose of 39 mg/kg of body weight, which dose is known to depress markedly the exploratory behavior of normal mice. Thirty minutes later the mice were tested for their exploratory behavior as described by E. Greenblatt and A. C. Osterberg, Toxicology and Applied Pharmacology, 7. 566-578 (1965). A compound is considered active if 3 or more of 10 mice are protected against the tetrabenazine-induced effects.

[2] = molecular target: T1, human platelet membranes (3H-imipramine receptor) (Homo sapiens, UniProt P31645); test: 3H-imipramine binding to human platelet membranes
T1 construct: Fresh human platelet concentrates (less than 48 hours old) were obtained from the New York Blood Center; tissue New York Blood Center; host or cells: human blood platelets, membranes
T1 sequence (P31645 whole entry): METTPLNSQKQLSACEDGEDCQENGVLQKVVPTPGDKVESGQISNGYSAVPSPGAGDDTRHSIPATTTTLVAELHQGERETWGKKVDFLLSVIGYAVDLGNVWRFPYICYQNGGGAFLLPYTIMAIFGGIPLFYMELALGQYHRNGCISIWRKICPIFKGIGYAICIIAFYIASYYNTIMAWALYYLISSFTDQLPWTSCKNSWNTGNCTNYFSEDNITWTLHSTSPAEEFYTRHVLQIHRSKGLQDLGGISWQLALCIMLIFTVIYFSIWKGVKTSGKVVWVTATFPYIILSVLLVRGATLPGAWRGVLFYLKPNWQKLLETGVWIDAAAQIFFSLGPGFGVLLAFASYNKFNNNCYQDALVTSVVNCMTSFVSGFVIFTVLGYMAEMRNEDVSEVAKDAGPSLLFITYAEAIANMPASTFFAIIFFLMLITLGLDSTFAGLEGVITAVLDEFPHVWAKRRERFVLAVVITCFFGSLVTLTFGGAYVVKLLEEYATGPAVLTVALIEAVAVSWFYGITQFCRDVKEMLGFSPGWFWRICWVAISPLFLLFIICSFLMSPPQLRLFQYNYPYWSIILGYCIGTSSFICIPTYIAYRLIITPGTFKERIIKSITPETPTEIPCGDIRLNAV
Procedure: The activity of the compounds of the invention as antidepressant agents was further verified# in the following test which measures the ability of a test compound to inhibit 3H-imipramine binding to human platelet membranes.
Platelet membranes were obtained using the procedure described by Wennogle, L. et al., Pharmac. Biochem. Behav., 15. 975 (1981). Fresh human platelet concentrates (less than 48 hours old) were obtained from the New York Blood Center. These concentrates were prepared in a citrate-dextrose anticoagulant using standard techniques. Platelets were washed twice by centrifugation (2500×G, 10 minutes) in 50 volumes of an antiprotease buffer containing 0.005M Tris potassium chloride, 0.12M sodium chloride, 0.05M Tris pH 7.5, 0.025 Units/ml aprotinin, 0.05 μg/m pepstatin, 2×10^-5 bacitracin, 3 mM ethylenediaminetetraacetic acid and 1.0 mM ethyleneglycol-bis (β-aminoethylether)N,N'-tetra-acetic acid. […] All procedures were conducted at 0° C. using plastic laboratory-ware throughout the platelet membrane preparation. Platelets were resuspended in 20 volumes of buffer and sonicated 3 times using 10 second bursts of a Branson sonifier (cell disrupter 350) at setting 6 (standard 3/4 inch horn), keeping the sample on ice throughout the procedure. Platelet membranes were then washed twice at 18,000×G for 20 minutes with 50 volumes of the antiprotease buffer and resuspended to 3.0 mg. protein/ml using the Bradford protein analysis with bovine gamma globulin as standard. Membranes were used immediately or stored frozen in liquid nitrogen.
The displacement of 3H-imipramine binding to human platelet membranes was performed essentially as described by Paul, S. M., et al., Life Sci., 953 (1980) with the following modifications. Membranes (0.3 mg protein) were suspended in antiprotease buffer with both […] 3H-imipramine (New England Nuclear) and displacing drug or buffer in a total volume of 250 #1 in glass test tubes. Samples were incubated for 90 minutes at 0° C., then diluted to 5 ml in 0.12M sodium chloride, 0.005M potassium chloride, 0.05M Tris pH 7.5 (wash buffer) and immediately filtered through GF/B Whatman Filters and washed twice with 5 ml of wash buffer. Filters were counted in a liquid scintillation counter after addition of Beckman HP Scintillant.
Non-specific binding of 3H-imipramine was defined as that fraction (generally 35%) of radioactivity that was not displaced by 10 μM desmethylimipramine. Specific binding was determined by subtraction of this non-specific level from values for total 3H-imipramine binding which were measured by incubating 3H-imipramine in the absence of displacing drug. Compounds were tested in duplicate test tubes at a concentration of 10 μM. Compounds which inhibited binding by more than 50% were considered to be active.

[3] = test system: mice (hypoxic environment); test: Hypoxic survival test; assay type: in vivo, mouse (Royal Hart); settings: intraperitoneal, 10% oxygen, 5 minutes
Method in brief: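 Groups of 20 Royal Hart mice (6 weeks old) dosed i.p. with compound in saline at 1–200 mg/kg, 30 minutes before exposure to 10% oxygen/90% carbon dioxide; survival scored after 5 minutes. Saline and physostigmine (0.125 mg/kg i.p.) groups run in parallel.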

[4] = test system: mice (anoxic induced amnesia); test: Passive Avoidance Anoxic Induced Amnesia Test; assay type: in vivo, mouse (Swiss-Webster, middle-aged); settings: intraperitoneal, vs saline control
Source text: A useful in vivo test associated with decreased neural function in mammals is the Passive Avoidance Anoxic Induced Amnesia Test. This test is used to determine the attenuation of anoxic induced amnesia in mice treated with drug, as compared to saline treated control animals with no drug. A shock-motivated, single trial, step-through passive avoidance procedure is used. Groups of 25 Swiss-Webster, middle-aged mice (9 months of age) are placed singly in the front chamber of a 2-chamber box and are allowed to voluntarily cross into the rear chamber. As soon as the mouse enters the rear chamber, a door automatically traps the animal and a mild electric shock (0.4 mA for 4 seconds) is delivered to its feet. Following the foot shock, the mice are initially placed in an anoxic environment (0% oxygen) for 12 seconds, which quickly induces unconsciousness. […] All testing is performed 24 hours later, and in all cases the mice appear fully recovered from the previous anoxic/hypoxic treatment. […] Control animals are injected intraperitoneally only with saline at 0.01 ml/g of body weight. The latent period prior to entering the rear chamber is recorded for both training and testing sessions. The greater the memory of being shocked, the greater the reluctance to enter into the rear chamber and the higher will be the latent period prior to re-entry. […]

[5] = Mus musculus, ip, 5 min, 100 mg/kg, read-out: % Survivors

## N#Cc1cnn2c1N(C(=O)CN1CCN(Cc3ccc4c(c3)OCO4)CC1)CC=C2c1cccc(C(F)(F)F)c1 [Example 23, 4-[[4-(1,3-Benzodioxol-5-ylmethyl)-1-piperazinyl]acetyl]-4,5-dihydro-7-[3-(trifluoromethyl)phenyl]pyrazolo[1,5-a]pyrimidine-3-carbonitrile]
[1]
  Result (protection against tetrabenazine-induced depression): Active
[2]
  inhibition at 10 µM: 81%

## CC1=C(c2ccc(Cl)cc2)n2ncc(C#N)c2N(C(=O)CN2CCN(Cc3cccc(Cl)c3)CC2)C1 [Example 133, 7-(4-Chlorophenyl)-4-[[4-[(3-chlorophenyl)methyl]-1-piperazinyl]acetyl]-4,5-dihydro-6-methylpyrazolo[1,5-a]pyrimidine-3-carbonitrile. dihydrochloride]
[3]; [5]
  responders at 100 mg/kg: 62%
[3]; Mus musculus, ip, 5 min, 200 mg/kg, read-out: % Survivors
  responders at 200 mg/kg: 73%
[4]; 10 mg/kg
  % Improvement: 66%

## N#Cc1cnn2c1N(C(=O)CN1CCN(CCCOc3ccccc3)CC1)CCC2c1cccc(C(F)(F)F)c1 (stereo not shown) [Example 57, 4,5,6,7-Tetrahydro-4-[[4-(3-phenoxypropyl)-1-piperazinyl]acetyl]-7-[3-(trifluoromethyl)phenyl]pyrazolo[1,5-a]pyrimidine-3-carbonitrile]
[3]; Mus musculus, ip, 5 min, 10 mg/kg, read-out: % Survivors
  responders at 10 mg/kg: 15%
[2]
  inhibition at 10 µM: 57%

## COc1cccc(CN2CCN(CC(=O)N3CC=C(c4cccc(C(F)(F)F)c4)n4ncc(C#N)c43)CC2)c1 [Example 20, 4,5-Dihydro-4-[[4-[(3-methoxyphenyl)methyl]-1-piperazinyl]acetyl]-7-[3-(trifluoromethyl)phenyl]pyrazolo[1,5-a]pyrimidine-3-carbonitrile]
[1]
  Result (protection against tetrabenazine-induced depression): Active
[2]
  inhibition at 10 µM: 78%

## COc1cccc(CN2CCN(CC(=O)N3CC=C(c4cccc(C(F)(F)F)c4)n4ncc(C#N)c43)CC2)c1.Cl.Cl [Example 79, 4,5-Dihydro-4-[[4-[(3-methoxyphenyl)methyl]-1-piperazinyl]acetyl]-7-[3-(trifluoromethyl)phenyl]pyrazolo[1,5-a]pyrimidine-3-carbonitrile, dihydrochloride]
[1]
  Result (protection against tetrabenazine-induced depression): Active

## N#Cc1cnn2c1N(C(=O)CN1CCN(CC#CCN3CCCC3=O)CC1)CC=C2c1cccc(C(F)(F)F)c1 [Example 109, 4,5-Dihydro-4-[[4-[4-(2-oxo-1-pyrrolidinyl)-2-butynyl]-1-piperazinyl]acetyl]-7-[3-(trifluoromethyl)phenyl]pyrazolo[1.5-a]pyrimidine-3-carbonitrile]
[3]; [5]
  responders at 100 mg/kg: 68%
[4]; 1 mg/kg
  % Improvement: 63%

## N#Cc1cnn2c1N(C(=O)CN1CCN(Cc3ccccc3)CC1)CC=C2c1ccccc1 [Example 147, 4,5-Dihydro-7-phenyl-4-[[4-(phenylmethyl)-1-piperazinyl]acetyl]pyrazolo[1,5-a]pyrimidine-3-carbonitrile]
[3]; [5]
  responders at 100 mg/kg: 50%
[4]; 25 mg/kg
  % Improvement: 45%

## Cl.N#Cc1cnn2c1N(C(=O)CN1CCN(Cc3ccccc3)CC1)CC=C2c1cccc(C(F)(F)F)c1 [Example 94, 4,5-Dihydro-4-[[4-(phenylmethyl)-1-piperazinyl]acetyl]-7-[3-(trifluoromethyl)phenyl]pyrazolo[1,5-a]pyrimidine-3-carbonitrile, hydrochloride]
[3]; 100 mg/kg
  % Survivors: 83%
[4]; 10 mg/kg
  % Improvement: 30%

## CC(c1ccccc1)N1CCN(CC(=O)N2CC=C(c3cccc(C(F)(F)F)c3)n3ncc(C#N)c32)CC1 (stereo not shown) [Example 141]
[3]; Mus musculus, ip, 5 min, 25 mg/kg, read-out: % Survivors
  responders at 25 mg/kg: 4%
[4]; 25 mg/kg
  % Improvement: 39%

## N#Cc1cnn2c1N(C(=O)CN1CCN(Cc3cnn(-c4ccccc4)n3)CC1)CC=C2c1cccc(C(F)(F)F)c1 [Example 146]
[3]; [5]
  responders at 100 mg/kg: 52.5%
[4]; 100 mg/kg
  % Improvement: 92%

## CN(C)CCN1CCN(CC(=O)N2CC=C(c3cccc(C(F)(F)F)c3)n3ncc(C#N)c32)CC1 [Example 97, 4-[[4-[2-(Dimethylamino)ethyl]-1-piperazinyl]acetyl]4,5-dihydro-7-[3-(trifluoromethyl)phenyl]pyrazolo[1,5-a]pyrimidine-3-carbonitrile. dihydrochloride]
[2]
  inhibition at 10 µM: 72%

## N#Cc1cnn2c1N(C(=O)CN1CCN(Cc3ccc(Cl)cc3)CC1)CC=C2c1cccc(C(F)(F)F)c1 [Example 39, 4-[[4-[(4-Chlorophenyl)methyl]-1-piperazinyl]acetyl]-7-[3-(trifluoromethyl)phenyl]pyrazolo[1,5-a]pyrimidine-3-carbonitrile]
[2]
  inhibition at 10 µM: 84%
